Read-outs that look alike come from different tables or passages of the source.
What was measured:
[1] = system: Gli-mediated transcription (U-87 MG-Gli-FLuc reporter); assay: U-87 MG-Gli-FLuc reporter assay; type: cell-based, human; conditions: 24 h, 12.5–0.78 μmol/L; compared with GANT-61 at equimolar concentration
Procedure: (§1) A possible direct inhibition of the reporter (Fluc) and luminescence itself, which could lead to false positive results, was also ruled out in a cellular as well as a noncellular model (data not shown).
(§2) Figure 1 Effect of compounds 11a, 11b, and positive control GANT-61 on Gli1 activation and cell viability measured using the U-87 MG-Gli-FLuc reporter assay. Data are expressed as percentages of control (100%) and represent the mean of three independent experiments with the standard deviation. To distinguish specific inhibition of Gli activation from a nonspecific cellular response, an MTS assay was performed simultaneously under the same conditions in 96-well transparent plates. Statistical analysis of Gli1 activity was performed using one-sample Student’s t-test (mu = 100): *, p < 0.05; **, p < 0.01. The same analysis was used to assess cytotoxicity by MTS assay: #, p < 0.05; ##, p < 0.01.
(§3) The U-87 MG-Gli-FLuc reporter cell line was developed from the human glioblastoma line U-87 MG obtained from ATCC and cultured in EMEM medium supplemented with 10% FBS, 1 mmol/L sodium pyruvate, and a 1 mmol/L nonessential amino acid mixture. […] Panels were placed on a shaker to achieve complete cell lysis, and luminescence was measured after 3 min using an EnVision plate reader.

U-87 MG-Gli-FLuc cells = assay: MTS viability assay run in parallel with U-87 MG-Gli-FLuc reporter assay; type: cell-based, human; conditions: up to a dose of 6.25 μmol/L, 24 h
Procedure: as §1, §2, §3

[2] = system: Hh signaling (Gli Reporter-NIH3T3, Gli-responsive FLuc); assay: Gli Reporter-NIH3T3 luciferase assay, mSHH or SAG induced; type: cell-based; conditions: mean ± SD, n=3
Procedure: To further validate the effect of new triterpenes on Hh signaling, we used the commercial reporter cell line NIH3T3–Gli reporter, which expresses the firefly luciferase (FLuc) gene under the control of a Gli-responsive element.
Gli Reporter-NIH3T3 (BPS Bioscience) cells were cultured in DMEM medium supplemented with 10% iron-supplemented bovine calf serum and under the selection pressure of Geneticin (500 μg/mL) at 37 °C in an atmosphere of 5% CO2 with 95% humidity. The Gli Reporter-NIH3T3 cell line expresses the firefly luciferase (FLuc) gene under the control of a Gli responsive element stably integrated into NIH3T3 cells. The cell line was validated through response to mSHH stimulation and the effect of commercially available Hh inhibitors (Cyclopamine). The assay was performed in 384-well white opaque microplates. Gli Reporter-NIH3T3 cells were transferred to Opti-MEM medium with a reduced content of 0.5% (v/v) iron-supplemented bovine calf serum, supplemented with a 1% solution of nonessential amino acids, 1 mmol/L sodium pyruvate, and 10 mmol/L HEPES, and seeded on the panel in a volume of 25 μL of cell suspension per well at a concentration of 2.5 × 10^5/mL. The following day, compounds were transferred at the concentration range of 16–0.25 μmol/L (dilution factor 2) and incubated for 2 h. Then, the mSHH ligand at concentrations of 0.25 and 0.5 μg/mL and SAG (a synthetic SMO agonist) at concentrations of 2 and 4 nmol/L were added to the wells. Controls representing DMSO-treated cells were also included at a concentration of 0.1% (v/v). Cells were incubated for another 24–30 h and then kept for 30 min at room temperature, and finally, 25 μL of Britelite plus reagent was added to each well. Plates were placed on a shaker to achieve complete cell lysis, and luminescence was measured after 3 min on an EnVision plate reader.

[3] = Parallel Artificial Membrane Permeability Assay (PAMPA); type: in vitro ADME; conditions: read-out: PAMPA log Pe (converted)
Text: The Parallel Artificial Membrane Permeability Assay (PAMPA) has emerged as a primary screen for determining passive transcellular permeability. […] The Caco-2 and MDCK-MDR1 permeability assays are established models of intestinal[37] and blood-brain barriers, respectively.[38]

[4] = SAG (SMO agonist) 2 nM after 2 h preincubation, read-out: IC50 SAG stimulation 2 nM
[5] = SAG (SMO agonist) 4 nM after 2 h preincubation, read-out: IC50 SAG stimulation 4 nM
[6] = mSHH 0.25 μg/mL after 2 h preincubation, read-out: IC50 mSHH stimulation 0.25 (μg/mL)
[7] = mSHH 0.5 μg/mL after 2 h preincubation, read-out: IC50 mSHH stimulation 0.5 (μg/mL)

For `C=C(C)[C@@H]1CC[C@]2(C(=O)O)CC[C@]3(C)C(CCC4[C@@]5(C)C=C(c6ccoc6)C(=O)C(C)(C)C5CC[C@]43C)C12` (some centres unmarked) [Compound 11b, 2-(Furan-3-yl)-3-oxolupa-1,20(29)-dien-28-oic acid], which Gli transcriptional activity [1] is on record?
Its Gli transcriptional activity is “inhibited Gli transcriptional activity in a dose-response manner”.

And the “Inhibition of proliferation or cell death induction (MTS) under reporter conditions” value (U-87 MG-Gli-FLuc cells)?
The value was “not accompanied by inhibition of proliferation or cell death induction”.

What about the IC50 [2, 4] of the same compound?
The IC50 was 3.5 ± 0.2 µM.

What about the IC50 [2, 5] of the same compound?
The IC50 was 4.1 ± 0.4 µM.

And the IC50 [2, 6]?
Its IC50 is 3.2 ± 0.3 µM.

And the IC50 [2, 7]?
Its IC50 is 2.4 ± 0.3 µM.

What about the Papp [3] of the same compound?
Its Papp is 0.0162 ×10⁻⁶ cm/s.

Which Gli transcriptional activity [1] does the source give for `C=C(C)[C@@H]1CC[C@]2(C(=O)O)CC[C@]3(C)C(CCC4[C@@]5(C)C=C(c6ccco6)C(=O)C(C)(C)C5CC[C@]43C)C12` (some centres unmarked) [Compound 11a, 2-(Furan-2-yl)-3-oxolupa-1,20(29)-dien-28-oic acid] here?
The Gli transcriptional activity was “inhibited Gli transcriptional activity in a dose-response manner”.

And the “Inhibition of proliferation or cell death induction (MTS) under reporter conditions” value (U-87 MG-Gli-FLuc cells)?
The value was “not accompanied by inhibition of proliferation or cell death induction”.

And the IC50 [2, 4]?
Its IC50 is 4.5 ± 0.6 µM.

And the IC50 [2, 5]?
Its IC50 is 3.8 ± 0.4 µM.

What about the IC50 [2, 6] of the same compound?
Its IC50 is 3.5 ± 0.5 µM.

And the IC50 [2, 7]?
The IC50 was 1.9 ± 0.2 µM.

And the Papp [3]?
The Papp was 0.0158 ×10⁻⁶ cm/s.
